Experiment [1] concerns H1299 (NSCLC) cell line. Kind of experiment: Cancer cell cytotoxicity assay (Calcein AM / Cell Titer-Glo), H1299. The class given is cell-based, human. The protocol:
(§1) Compounds of the invention and comparative compounds were assayed in three cancer cell lines to confirm cytotoxic activity and to set a range of concentrations to use in subsequent assays. All cell lines were maintained in RPMI medium 1640 supplemented with 10% (wt/vol) fetal bovine serum and penicillin-streptomycin (100 units/ml and 100 μg/ml). Cells were routinely checked for microbial or mycoplasma contamination and if necessary replaced. Cells were harvested by trypsinization using 0.25% trypsin and 0.1% EDTA and then counted in a ViCell XR coulter counter in duplicate, before and after dilution for assay plating. Between four to nine different types of human cancer cells were plated at a density of 10,000-15,000 cells per well of each 96-well black tissue culture treated microtiter plate, then were grown for 1 hour at 37° C. with 5% CO2/95% air in a humidified incubator to allow cells to attach before compound addition. Compound stocks (100×) were prepared in 96-well V-bottom polypropylene microtiter plates. Five serial (1:2) dilutions were made with anhydrous DMSO at 100× the final concentration used in the assay. The individual wells in compound-containing […] well plates were diluted 1:10 with complete cell culture medium and the 10× (10 μL) stocks were added to 90 μl of cells in each plate to ensure full mixing of stocks with culture media by using a Biomek FX liquid handler with 96-well head. Doxorubicin was used as the control to monitor the behavior of each cell line. Cells were incubated with the compounds for 3 to 4 days before fluorescence and luminescence reading. Test plates were removed from the incubator and washed once in sterile PBS to remove serum containing calcium esterases. Calcein AM (acetoxymethyl ester) reagent was added and the cells were incubated for 30 min at 37° C. Plates were read for emission by using a fluorescein filter (excitation 485 nm, emission 535 nm). An equal volume (30 μL) of Cell Titer-Glo reagent (Promega Corporation, Inc.) was added and incubated for 10 min at room temperature with gentle agitation to lyse the cells. Each plate was re-read for luminescence to confirm the inhibition observed in the fluorescent […] assay as a measure of cell viability. The cancer cell cytotoxicity assays were run in triplicate using ≧5 different drug concentrations, and the data were analyzed to establish statistical significance and a valid IC50 value for inhibition of cell growth, based on ≧2 log differences in drug effect.
(§2) The cancer cell cytotoxicities (determined substantially according to the method of Example 5) of various compounds of the invention and comparative compounds as determined in four to five different human cancer cell lines are shown in Table 1. The structures of the compounds listed are found in FIGS. 2-4.

The subject of experiment [2] is NCI-H460 (NSCLC) cell line. Kind of experiment: Cancer cell cytotoxicity assay (Calcein AM / Cell Titer-Glo), NCI-H460. The class given is cell-based, human. The protocol: as §1, §2
For experiment [3], the system named is HT29 (Colorectal) cell line. As to the kind of experiment: Cancer cell cytotoxicity assay (Calcein AM / Cell Titer-Glo), HT29. The class given is cell-based, human. As to conditions: Colorectal. As to the method: as §1, §2
In experiment [4] the test system is SKOV3 (Ovarian) cell line. As to the kind of experiment: Cancer cell cytotoxicity assay (Calcein AM / Cell Titer-Glo), SKOV3. The class given is cell-based, human. As to the method: as §1, §2
Experiment [5] concerns A549 (NSCLC) cell line. As to the kind of experiment: Cancer cell cytotoxicity assay (Calcein AM / Cell Titer-Glo), A549. The class given is cell-based, human. As to the method: as §1, §2
Experiment [6] concerns human cancer cell lines. Kind of experiment: Cancer cell cytotoxicity, summary over four to five human cancer cell lines. The class given is cell-based. As to conditions: read-out: IC50 values (cancer cell cytotoxicity). As to the method: as §1, §2
For experiment [7], the system named is SKOV3 (Ovarian) cell line. As to conditions: footnote 2: data from Langenhan et al. 2005; cited from earlier work.
The test system of experiment [8] is NCI-H460 (NSCLC) cell line. The settings on record: footnote 2: data from Langenhan et al. 2005; cited from earlier work.
Experiment [9] deals with A549 (NSCLC) cell line. The settings on record: footnote 2: data from Langenhan et al. 2005; cited from earlier work.
Where [10] appears, read: NSCLC, footnote 3: determined at same time as CEN07-117 and -121.
[11] abbreviates: footnote 3: determined at same time as CEN07-117 and -121.
The mark [12] stands for this setting: Ovarian, footnote 3: determined at same time as CEN07-117 and -121.
The mark [13] stands for this setting: Ovarian, assay set not specified.
[14] abbreviates: NSCLC, footnote 4: determined at same time as CEN08-177 and -178.
Where [15] appears, read: Homo sapiens, NCI-H1299, NSCLC, footnote 6: determined at same time as CEN08-243 and -244.
Setting [16] is: Homo sapiens, NCI-H460, NSCLC, footnote 6: determined at same time as CEN08-243 and -244.
The mark [17] stands for this setting: Homo sapiens, SK-OV-3, Ovarian, footnote 6: determined at same time as CEN08-243 and -244.
Where [18] appears, read: Homo sapiens, A549, NSCLC, footnote 6: determined at same time as CEN08-243 and -244.

The structures appear in SMILES notation. pIC50: −log10 of the molar value. Like-named read-outs stand apart in the source and are kept apart here. Some results are limits rather than exact numbers.

For orientation: pIC50 means the IC50 on a negative log10 scale, so that one unit is a factor of ten.

With `CON(C1CCC2(C)C(CCC3C2CC(O)C2(C)C(C4=CC(=O)OC4)CCC32O)C1)C1OCC(O)C(O)C1O` (stereo not shown) [CEN07-121], the pIC50 in experiment [1] (setting [10]) is 6.37; in [2] (setting [10]), 6.80; in [3] (setting [11]) it was 6.64; in experiment [4] (setting [12]) it was 6.52; in experiment [5] (setting [10]) it was 6.82.
On the same counts, the results for `CON(C1CCC2(C)C(CCC3C2CC(O)C2(C)C(C4=CC(=O)OC4)CCC32O)C1)C1OCC(O)C(O)C1O` (stereo not shown) [CEN07-117] are 6.30, 6.46, 6.36, 6.26 and 6.47.
Regarding `CC12CCC(OC3OCC(O)C(O)C3O)C=C1CCC1C2CCC2(C)C(c3ccc(=O)oc3)CCC12O` (stereo not shown) [CEN08-190], the pIC50 is 8.40 in experiment [1] (NSCLC, assay set not specified); 8.22 in experiment [2] (NSCLC, assay set not specified); 8.22 in experiment [3] (assay set not specified); 7.55 in experiment [4] (setting [13]); 8.40 in experiment [5] (NSCLC, assay set not specified).
Regarding `CC12CCC(OC3OCC(O)C(O)C3O)CC1CCC1C2CCC2(C)C(C3=CC(=O)OC3)CCC12O` (stereo not shown) [CEN08-177], the pIC50 in experiment [1] (setting [14]) is 7.40; in experiment [2] (setting [14]), 7.70; in [3] (footnote 4: determined at same time as CEN08-177 and -178), 7.15; in [4] (Ovarian, footnote 4: determined at same time as CEN08-177 and -178), 7.10; in experiment [5] (setting [14]) it was 7.70.
For the molecule `CON(C1CCC2(C)C(CCC3C2CCC2(C)C(C4=CC(=O)OC4)CCC32O)C1)C1OCC(N)C(O)C1O` (stereo not shown) [CEN08-242], the pIC50 in [1] (NSCLC, assay set not specified) was 6.80; in [2] (NSCLC, assay set not specified), 7.13; in experiment [4] (setting [13]), 6.64; in [5] (NSCLC, assay set not specified), 7.30.
Consider `CON(C1OC[C@H](N)[C@H](O)[C@@H]1O)[C@@H]1C=C2CCC3C(CC[C@]4(C)[C@@H](c5ccc(=O)oc5)CC[C@]34O)[C@@]2(C)CC1` (stereo partly drawn) [CEN08-244, (3S)-3-N-methoxyamino-scillarenin-L-neo-4-amino-4-deoxyriboside], for which the pIC50 was over 7.10 in experiment [6]; 8.00 in experiment [1] (setting [15]); 8.22 in experiment [2] (setting [16]); 8.22 in [4] (setting [17]); 8.40 in experiment [5] (setting [18]).
`CON[C@H]1CC[C@@]2(C)[C@H](CC[C@@H]3[C@@H]2CC[C@]2(C)[C@@H](C4=CC(=O)OC4)CC[C@]32O)C1` [(3β)-3-N-methoxyaminodigitoxigenin]: the pIC50 in [7] was 5.52; in [8] it was 5.62; in experiment [9], 5.08.
As for `CON(C1C=C2CCC3C(CC[C@]4(C)[C@@H](c5ccc(=O)oc5)CC[C@]34O)[C@@]2(C)CC1)[C@H]1OC[C@H](N)[C@H](O)C1O` (stereo partly drawn) [CEN08-243, (3S)-3-N-methoxyamino-scillarenin-L-neo-4-amino-4-deoxyxyloside], the pIC50 is over 7.10 in experiment [6]; 8.15 in experiment [1] (setting [15]); 8.30 in experiment [2] (setting [16]); 8.30 in experiment [4] (setting [17]); 8.52 in [5] (setting [18]).

Source of the values: US8703723B2, “Glycoside compounds and pharmaceutical compositions thereof” (Centrose, LLC, priority 2009, dated 2014).
